Consider eleven compounds from paper PMC10726475, “Atypical N-Alkyl to N-Noralkoxy Switch in a Dual cSRC/BCR-ABL1 Kinase Inhibitor Improves Drug Efflux and hERG Affinity” (ACS Medicinal Chemistry Letters, 2023).

The structures appear in SMILES notation. “And” between values parts separate entries of the source, which are not always exact repeats. Identical values can stand only once. Like-named read-outs stand apart in the source and are kept apart here. Where only a bound is given, the exact number is not on record here.

One data set is described as follows: in vitro. Conditions: human, Caco-2.
Another data set relates to P-gp (MDR1). As to the kind of experiment: in vitro. Conditions: dog, MDCK-MDR1.
The subject of a further data set is Caco-2 cells. Put plainly: Caco-2 cell permeability.
For a further data set, the system named is MDCKII-MDR1 cells. Put plainly: MDCKII-MDR1 cell permeability.
A short description of data set [1]: Plasma protein binding by equilibrium dialysis, human. The class given is in vitro ADME. (In equilibrium dialysis only unbound substance equilibrates across the membrane.)
Text: (§1) Human plasma (mixed gender) Ltd-People’s Hospital of Shandong Weifang Hi-
(§2) Tech Industrial Development Zone (Batch No. P-
(§3) Rat plasma (SD/mixed gender) BiolVT (Batch No. RAT501985)
(§4) Mouse plasma (CD-1/mixed gender) IPHASE or BiolVT (Batch No. MSE427337)
A short description of data set [2]: Plasma protein binding by equilibrium dialysis, rat. The class given is in vitro ADME.
Text: as §1, §2, §3, §4
Data set [3] is described as follows: Plasma protein binding by equilibrium dialysis, mouse. The class given is in vitro ADME.
Text: as §1, §2, §3, §4
Data set [4] is described as follows: pKa determination by pH-metric method. Type of data set: physicochemical. The protocol: Figure 3 Matched molecular pair (MMP) analysis on the 2-methoxyphenoxy-propyl-N-methylpiperazine scaffold and pKa values of related δ-alkoxy substituted amines. (A) MMP analysis of a bosutinib fragment. All measurements were assayed by Pharmaron Inc., and values presented represent the mean of n = 2 technical replicates, unless otherwise specified. logD7.4 was determined by the shake-flask method. […] (B) Reported[54] pKa values of related dimethylamines highlighting similarities in pKa values of δ-alkoxy substitution patterns. TEXT PRINTED IN THE PICTURE: (A) 17: logD7.4: 0.9; Aq. Sol. (μM): 277; pKa1: 4.2; pKa2: 8.1 | (A) 18: logD7.4: 1.0; Aq. Sol. […]
Inc. using methods previously derscribed.1 […]
Shedlovsky extrapolation for the pH-metric pKa method. […]

Data set [5] is described as follows: Solubility in aqueous buffer at pH 7.4. The settings on record: aqueous buffer at pH 7.4, n = 1; read-out: aq sol. The class given is physicochemical.
Data set [6] in a line: logD7.4 by shake-flask method. Conditions: pH 7.4. Type of data set: physicochemical.
The conditions of data set [7]: cited from earlier work; for ΔpKa: relative to simple tertiary amine 19, δ-position substituent.
Where [8] appears, read: pH-metric method, range -12, read-out: pKa1.

Text for MDCKII-MDR1 cells: (§5) Abbreviations: Papp, apparent permeability; AP, apical; BL, basolateral.
Text for P-gp (MDR1): as §5

Consider `CN(N=O)C(=O)N[C@H]1C(O)O[C@H](CO)[C@@H](O)[C@@H]1O` (mixture of isomers) [Streptozotocin], for which the “Count (# of wells)” value with Salmonella strain TA100 (TA100+S9, 2.5E-06 M) amounted to 19; in the data set with Salmonella strain TA100 (TA100-S9, 2.5E-06 M), 39; in the data set with Salmonella strain TA98 (TA98+S9, 2.5E-06 M) it was 6; with Salmonella strain TA98 (TA98-S9, 2.5E-06 M) it was 1; in the data set with Salmonella strain TA1537 (TA1537+S9, 2.5E-06 M), 0; with Salmonella strain TA1537 (TA1537-S9, 2.5E-06 M), 1. Further, the “Count (# of wells)” value is 48 in the data set on Salmonella strain TA1535 (TA1535+S9, 2.5E-06 M) and 46 with Salmonella strain TA1535 (TA1535-S9, 2.5E-06 M). For the same compound, the “Positive Significance (- to +++)” value is listed as “+ (weak positive, if P < 0.05)” with Salmonella strain TA98 (TA98+S9, 2.5E-06 M); “-” in the data set on Salmonella strain TA98 (TA98-S9, 2.5E-06 M); “-” with Salmonella strain TA1537 (TA1537+S9, 2.5E-06 M); “-” in the data set on Salmonella strain TA1537 (TA1537-S9, 2.5E-06 M).
`Nc1ccc2cc3ccccc3cc2c1` [2-Aminoanthracene]: the “Count (# of wells)” value stood at 17 with Salmonella strain TA100 (TA100+S9, 1.0E-06 M); 2 with Salmonella strain TA100 (TA100-S9, 1.0E-06 M); 48 in the data set on Salmonella strain TA98 (TA98+S9, 2.0E-06 M); 1 in the data set with Salmonella strain TA98 (TA98-S9, 1.0E-06 M); 11 in the data set on Salmonella strain TA1537 (TA1537+S9, 2.0E-06 M); 0 with Salmonella strain TA1537 (TA1537-S9, 1.0E-06 M). The “Count (# of wells)” value in the data set with Salmonella strain TA1535 (TA1535+S9, 1.0E-06 M) was determined as 12; in the data set with Salmonella strain TA1535 (TA1535-S9, 1.0E-06 M), 0. Besides, the “Positive Significance (- to +++)” value in the data set with Salmonella strain TA100 (TA100+S9, 1.0E-06 M) is on record as “++ (strong positive, if P < 0.01)”; in the data set on Salmonella strain TA100 (TA100-S9, 1.0E-06 M), “-”; in the data set on Salmonella strain TA98 (TA98-S9, 1.0E-06 M), “-”; in the data set on Salmonella strain TA1537 (TA1537+S9, 2.0E-06 M) it was “++ (strong positive, if P < 0.01)”; with Salmonella strain TA1537 (TA1537-S9, 1.0E-06 M) it was “-”; in the data set with Salmonella strain TA1535 (TA1535-S9, 1.0E-06 M), “-”.
In the case of `O=[N+]([O-])c1ccc2c(c1)Cc1ccccc1-2` [2-Nitrofluorene], the “Count (# of wells)” value in the data set on Salmonella strain TA100 (TA100+S9, 3.0E-05 M) was found to be 0; in the data set with Salmonella strain TA100 (TA100-S9, 3.0E-05 M), 2; in the data set with Salmonella strain TA98 (TA98+S9, 3.0E-05 M), 28; with Salmonella strain TA98 (TA98-S9, 3.0E-05 M), 30; with Salmonella strain TA1537 (TA1537+S9, 3.0E-05 M) it was 2; with Salmonella strain TA1537 (TA1537-S9, 3.0E-05 M), 6. For the same compound, the “Count (# of wells)” value was found to be 0 in the data set on Salmonella strain TA1535 (TA1535+S9, 3.0E-05 M) and 0 in the data set with Salmonella strain TA1535 (TA1535-S9, 3.0E-05 M). Also, the “Positive Significance (- to +++)” value in the data set with Salmonella strain TA100 (TA100+S9, 3.0E-05 M) was “-”; in the data set with Salmonella strain TA100 (TA100-S9, 3.0E-05 M) it was “-”; in the data set with Salmonella strain TA1537 (TA1537+S9, 3.0E-05 M) it was “-”; in the data set on Salmonella strain TA1537 (TA1537-S9, 3.0E-05 M), “+ (weak positive, if P < 0.05)”; in the data set on Salmonella strain TA1535 (TA1535+S9, 3.0E-05 M) it was “-”; in the data set with Salmonella strain TA1535 (TA1535-S9, 3.0E-05 M), “-”.
`Nc1c2ccccc2nc2ccccc12` [9-Aminoacridine]: the “Count (# of wells)” value amounted to 2 in the data set on Salmonella strain TA100 (TA100+S9, 1.0E-05 M); 0 in the data set on Salmonella strain TA100 (TA100-S9, 1.0E-05 M); 1 in the data set on Salmonella strain TA98 (TA98+S9, 1.0E-05 M); 2 in the data set on Salmonella strain TA98 (TA98-S9, 1.0E-05 M); 31 in the data set with Salmonella strain TA1537 (TA1537+S9, 1.0E-05 M); 25 with Salmonella strain TA1537 (TA1537-S9, 1.0E-05 M). For the same compound, the “Count (# of wells)” value with Salmonella strain TA1535 (TA1535+S9, 1.0E-05 M) is 1; in the data set on Salmonella strain TA1535 (TA1535-S9, 1.0E-05 M) it was 0. The “Positive Significance (- to +++)” value in the data set with Salmonella strain TA100 (TA100+S9, 1.0E-05 M) is recorded as “-”; with Salmonella strain TA100 (TA100-S9, 1.0E-05 M), “-”; in the data set with Salmonella strain TA98 (TA98+S9, 1.0E-05 M), “-”; in the data set with Salmonella strain TA98 (TA98-S9, 1.0E-05 M) it was “-”; in the data set with Salmonella strain TA1535 (TA1535+S9, 1.0E-05 M), “-”; with Salmonella strain TA1535 (TA1535-S9, 1.0E-05 M), “-”.
In general, Papp A→B refers to the apparent permeability from the apical to the basolateral side of a cell layer. The low end stands for slow passage, the high end for fast passage. In general, Papp B→A refers to how fast a substance crosses the layer from the basolateral side. Broadly, the efflux ratio is a quotient of directional permeabilities that is used to spot active efflux. For `C[C@H]1O[C@@H](O[C@H]2[C@@H](O)C[C@H](O[C@H]3[C@@H](O)C[C@H](O[C@H]4CC[C@@]5(C)[C@H](CC[C@@H]6[C@@H]5C[C@@H](O)[C@]5(C)[C@@H](C7=CC(=O)OC7)CC[C@]65O)C4)O[C@@H]3C)O[C@@H]2C)C[C@H](O)[C@@H]1O` [Digoxin], in “in vitro”, the Papp A→B at 2 h, 5 μM is 0.34 ×10⁻⁶ cm/s; the Papp B→A at 2 h, 5 μM worked out at 15.6 ×10⁻⁶ cm/s; the efflux ratio at 2 h, 5 μM is 45.6; the recovery was found to be 103%. Further, in the data set on P-gp (MDR1), the Papp A→B at 2 h, 1 μM was 0.26 ×10⁻⁶ cm/s; the Papp B→A at 2 h, 1 μM was determined as 10.2 ×10⁻⁶ cm/s; the efflux ratio at 2 h, 1 μM is 38.6; the recovery was 96.3%. Besides, in the data set with Caco-2 cells, the “Recovery% (BL-AP)” value was 101.40%. The “Recovery% (BL-AP)” value with MDCKII-MDR1 cells stood at 92.45%.
With `CC(=O)N1CCN(c2ccc(OCC3COC(Cn4ccnc4)(c4ccc(Cl)cc4Cl)O3)cc2)CC1` (centres unmarked) [Ketoconazole], the “fu, plasma % / %Unbound” value in [1] (5 μM, equilibrium dialysis) amounted to 0.82%; in data set [2] (5 μM, equilibrium dialysis) it was 0.67%. The recovery in data set [1] (both sexes) stood at 98.6%; in data set [2] (both sexes, SD), 103%; in [3] (both sexes, CD-1), 96.8%. The share remaining at 6 h, 5 μM in data set [1] (both sexes) amounted to 102%; in data set [3] (both sexes, CD-1), 96.3%. For the same compound, the fraction unbound at 5 μM in data set [1] (both sexes, read-out: %Bound (converted)) was 0.0082; in data set [2] (both sexes, SD, read-out: fu, plasma % / %Unbound (converted)), 0.0067; in data set [3] (both sexes, CD-1, 5 μM, equilibrium dialysis, read-out: fu, plasma % / %Unbound), 0.0058. In addition, the “%Bound” value in data set [3] was found to be 99.42%.
By logD is commonly meant the decadic logarithm of the distribution of all forms, ionised or not, between an organic phase and buffer at a given pH. Low values mean lower lipophilicity, high ones higher lipophilicity. For the compound `COc1ccccc1OCCCN1CCN(C)CC1` [compound 17], the pKa in data set [4] (pH 2, pH-metric method, range pH 2-12, read-out: pKa2) came to 8.1; in data set [4] (setting [8]), 4.2. Besides, the solubility in data set [5] is > 250 µM and 277 µM. In data set [6], this compound displayed a logD at 2 h of 0.9.
On to `COc1ccccc1OCCON1CCN(C)CC1` [compound 18], for which the pKa in [4] (setting [8]) was determined as 7.4. Also, the ΔpKa in data set [4] (terminal N-methylamine of 18 relative to 17) is recorded as −0.7. Moreover, the solubility in [5] is > 250 µM and 287 µM. This compound displayed a logD at 2 h in [6] of 1.
As for `COCCCN(C)C` [compound 20], in data set [7], the ΔpKa is recorded as −0.8.
`CN(C)CCCO` [compound 21]: the ΔpKa in data set [7] is given as −0.9.
Turning to `NO` [hydroxylamine], the pKa in data set [7] (simple hydroxylamine) is given as 5.9.
